Laboratory results as given in patent US20250154193A1, “STEROID COMPOUND, AND PREPARATION METHOD THEREFOR AND APPLICATION THEREOF” (CHOLESGEN (SHANGHAI) CO., LTD., priority 2022, published 2025).

Legend:
[1] = Liver microsomal metabolic stability assay; type: in vitro ADME; conditions: rat liver microsomes, NADPH, 37° C., 0-60 minutes; read-out: Rat microsomal metabolic half-life (t1/2)
Procedure: PBS solution (100 mM), MgCl2 solution (100 mM), and NADPH solution (20 mM) were prepared respectively. Compound and testosterone (positive control) stock solutions were then prepared with dimethyl sulfoxide (DMSO), diluted to 100 µM with methanol for sample incubation, and stored at −10 to −30° C. 12.5 μL of rat liver microsomes (purchased from XenoTech, Cat. No.: R1000, Lot No.: 1310030, specification: 20 mg/mL), 432.5 µL of PBS solution (100 mM), 25 µL of NADPH solution (20 mM), and 25 μL of MgCl2 solution (100 mM) were added to a 96-well plate, mixed well, and pre-incubated at 37° C. for 5 minutes. 5 µL of substrate (test compound) solution was added to start the reaction. At specified time points of 0, 5, 15, 30, 45, and 60 minutes (0 and 60 minutes for the negative control group), 50 µL of the incubated samples were added to a stop plate containing 100 µL of ice-cold stop solution, vortexed for 1 minute to inactivate the reaction, and stored at −60 to −90° C. for subsequent analysis. Sample analysis of the test compound and the control compound testosterone was performed using LC-MS/MS method. Chromatographic peaks were integrated, calculated, and processed using Analyst software. Semi-quantitative analysis was performed for both the test compound and the control compound testosterone by calculating peak area ratios.

SREBP pathway = assay: SREBP luciferase reporter gene system (SRE-luciferase assay) in Huh-7/SRE-Luc cells; type: cell-based; conditions: Homo sapiens, sterol-deficient medium, compound treatment 16 hours, luciferase/GFP ratio
Method in brief: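 Huh-7 cells stably carrying an LDLR promoter (SRE)-luciferase and GFP were treated for 16 hours in sterol-deficient medium (5% lipoprotein-deficient serum, 2 μM lovastatin, 10 μM mevalonate) at […] compound, with DMSO vehicle. IC50 derived from the ratio of luciferase activity to GFP fluorescence.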

liver organoids = assay: Real-time quantitative PCR of lipogenesis- and fibrosis-related genes in fatty liver organoids; type: cell-based, mice; conditions: mouse fatty liver organoids, 1 and 3 μM, 72 hours, qPCR
From the text: Liver samples or liver organoid samples were homogenized in TRI Reagent (T9424, Sigma), and total RNA was extracted according to the manufacturer's instructions. Equal amounts of RNA template were used to synthesize cDNA with oligo dT primers and MLV reverse transcriptase (Promega). Quantitative data for genes were collected using the Bio-Rad CFX96 real-time PCR system, and the relative amount of gene mRNA was quantified using the comparative CT method.
C57BL/6N mice were fed with fatty liver-inducing diet (TrophicDiet, TP2630052A, containing 10.2% kcal protein, 37.3% kcal carbohydrate, and 52.6% kcal fat) and fructose-containing drinking water (23.1 g of fructose and 18.9 g of dextrose were dissolved in 1 L of water, then filtered and sterilized) for a total of 16 weeks starting at 12 weeks of age to generate a fatty liver model. To generate fatty liver organoids, liver tissues from mice with fatty liver were minced and digested in digestion buffer at 37° C. for 30 to 60 minutes. The digestion buffer included DMEM/F-12 (Cytiva, SH30023.01), 2.5 mg/mL collagenase D (Roche, COLLD-RO), and 0.1 mg/mL DNaseI (Sigma-Aldrich, DN25). […]
To distinguish whether the inhibitory effect of 25-hydroxylanosterol is directly based on its effect on the liver or a systemic effect, we utilized 3D liver organoids as an in vitro model for the study of fatty liver to analyze the effect of 25-hydroxylanosterol on lipogenesis and fibrosis marker expression in liver organoids. […] RNA from the organoids was collected and analyzed for the differential expression of lipogenesis-related genes (Hmgcs, Hmgcr, SCD1, and FASN) and fibrosis markers (αSMA and Colla1) using fluorescent real-time quantitative PCR.
In FIGS. 35 and 36, data are represented as mean±standard deviation. P values were calculated using one-way ANOVA; ns indicates no statistical difference; * indicates P<0.05; ** indicates P<0.01; *** indicates P<0.001. In FIGS. 47 and 53, quantitative analysis was performed using ImageJ software. […] P values were calculated using one-way ANOVA; * indicates P<0.05; ** indicates P<0.01; *** indicates P<0.001.

Row | Structure (SMILES) | half-life at 1 µM [1] [h] | IC50 (SREBP pathway) [µM] | expression levels of lipogenesis-related genes (Hmgcs, Hmgcr, SCD1, and FASN) (liver organoids)
1 | COc1ccccc1C(O)CCC[C@@H](C)[C@H]1CC[C@H]2[C@@H]3CC[C@H]4[C@@H](O)[C@@H](O)CC[C@]4(C)[C@H]3CC[C@]12C (stereo partly drawn) [compound 287, 24-[Hydroxy(2-methoxyphenyl)methyl]-5α-cholan-30,40-diol] | 1.27 | 0.159 | 
2 | C[C@H](CCCC(O)c1c(F)cccc1F)[C@H]1CC[C@H]2[C@@H]3CC[C@H]4C(=O)[C@@H](O)CC[C@]4(C)[C@H]3CC[C@]12C (stereo partly shown) [compound 298] | 0.316 | 0.028 | 
3 | C[C@H](CCCC(O)c1c(F)cccc1F)[C@H]1CC[C@H]2[C@H]3[C@H](CC[C@]12C)[C@@]1(C)CC[C@H](O)[C@H](O)[C@@H]1CC3(F)F (stereo partly drawn) [compound 300, (1R,3aS,3bS,5aR,6R,7S,9aR,9bS,11aR)-1-[(2R)-6-(2,6-difluorophenyl)-6-hydroxyhexan-2-yl]-4,4-difluoro-9a,11a-dimethylhexadecahydro-1H-cyclopenta[1,2-α]phenanthrene-6,7-diol] | 0.402 | 0.036 | 
4 | C[C@H](CCCC(C)(C)O)[C@H]1CC[C@H]2[C@H]3[C@H](CC[C@]12C)[C@@]1(C)CC[C@H](O)C(=O)[C@@H]1CC3(F)F [compound 302, (1R,3aS,3bS,5aR,7S,9aR,9bS,11aR)-4,4-difluoro-7-hydroxy-1-[(2R)-6-hydroxy-6-methylheptan-2-yl]-9a,11a-dimethylhexadecahydro-1H-cyclopenta[1,2-α]phenanthren-6-one] | 0.979 | 0.035 | 
5 | COc1cc(F)ccc1C(O)CCC[C@@H](C)[C@H]1CC[C@H]2[C@@H]3CC[C@H]4[C@@H](O)[C@@H](O)CC[C@]4(C)[C@H]3CC[C@]12C (stereo partly drawn) [compound 306, 24-[(4-fluoro-2-methoxyphenyl)(hydroxy)methyl]-5α-cholan-3β,4β-diol] | 1.74 | 0.08 | 
6 | C[C@H](CCCC(O)c1ccccc1OC(F)(F)F)[C@H]1CC[C@H]2[C@@H]3CC[C@H]4[C@@H](O)[C@@H](O)CC[C@]4(C)[C@H]3CC[C@]12C (stereo partly drawn) [compound 317, 24-(hydroxy{2-[(trifluoromethyl)oxy]phenyl}methyl)-5α-cholan-3β,4β-diol] | 2.28 | 0.14 | 
7 | CC[C@H]1[C@@H](O)[C@@H]2[C@H](CC[C@]3(C)[C@@H]([C@H](C)CCC(=O)O)CC[C@@H]23)[C@@]2(C)CC[C@@H](O)C[C@@H]12 [obeticholic acid, Obeticholic acid, reference compound] |  |  | failed to inhibit
